Laboratory results from patent publication US20080132505A1 (Glaxo Group Limited, priority 2004, published 2008).

Experiments:
[1] = molecular target: human cannabinoid CB2 receptor (Homo sapiens, UniProt P34972); assay: Cannabinoid CB2 receptor agonist activity (yeast reporter assay, FDGlu fluorescence); format: cell-based; conditions: for EC50: EC50 value at the cloned human cannabinoid CB2 receptor; for Emax: read-out: efficacy value (Emax relative to HU210) at the cloned human cannabinoid CB2 receptor
Sequence of human cannabinoid CB2 receptor (P34972 whole entry): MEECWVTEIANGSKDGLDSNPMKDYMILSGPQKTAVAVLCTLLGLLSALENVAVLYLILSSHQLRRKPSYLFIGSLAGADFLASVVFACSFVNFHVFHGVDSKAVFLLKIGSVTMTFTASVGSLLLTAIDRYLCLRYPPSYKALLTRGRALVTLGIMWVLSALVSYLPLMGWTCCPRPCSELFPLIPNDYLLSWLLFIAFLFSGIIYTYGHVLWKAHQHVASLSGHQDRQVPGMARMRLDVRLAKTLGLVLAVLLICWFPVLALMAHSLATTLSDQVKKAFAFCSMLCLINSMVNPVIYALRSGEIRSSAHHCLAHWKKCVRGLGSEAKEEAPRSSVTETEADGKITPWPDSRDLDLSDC
Procedure, shortened: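 Agonist-driven growth was read as fluorescein fluorescence (ex 485, em 535 nm) from FDGlu cleavage after 24 h at 30 °C, using yeast strain MMY23 carrying human CB2 and chimeric Gpa1/Gαi3. Medium had 10 mM 3-aminotriazole, pH 7.0; four-parameter fits gave EC50, with Emax and EMR versus HU210.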

[2] = Particle size analysis (Lecotrac laser particle size analyser) pre and post nanomilling; format: physicochemical
Procedure: 2.5 g of compound of example 176 was weighed into a 10 ml centrifuge tube. 25 ml of 0.3 mm yttrium zirconium (YTZ) ceramic milling beads (Manufacturer: Tosob, Japan; Supplier: Glen Creston Ltd., batch no. 5280130030)”) was weighed into a 50 ml milling pot. 22.5 ml of aqueous 1.5% HPMC was measured with a measuring cylinder into a 100 ml beaker. This solution was homogenised for 3 seconds with an Ultra Turrax T25 homogeniser. Approximately 200 mg of the 2.5 g of the compound was added to the HPMC solution and homogenised at the lowest speed setting until the powder was wetted. This was repeated until all the compound had been added. The speed of the homogeniser was then increased to maximum and the suspension was homogenised for a further 3 minutes. This suspension was allowed to stand for 30 minutes in order to allow some of the foam to disperse. The suspension was then poured into the 50 ml pot containing the YTZ milling beads, stirring to release any trapped air. The lid to the pot was then fitted and the pot sealed with some Nesco film. This procedure was repeated for a second 50 ml nanomilling pot and both pots were placed on a Retsch mill and milled for a total of 8 hours.
The milling pots were removed from the Retsch mill and left to cool and for the foam to disperse overnight. In the morning the suspension and bead mixture was passed through a 200μ, 40 mm diameter screen. The contents from each 50 ml pot was washed with aqueous 1.5% HPMC: 10% of the original suspension volume (i.e. 2.5 ml). The suspension from the 2 pots was combined to make 1 batch. The suspension obtained from the method above was named the concentrate.
A particle size analysis was carried out on the Lecotrac laser particle size analyser. The results are shown in Table B along with the results from the starting material for comparison:
Compounds of Examples 19, 34, 194, 217, 228, 247 were nanomilled on a 1 g scale using the process described above and the particle size analysed pre and post nanomilling.

[3] = Table C, after nanomilling, 1 g scale
[4] = Table C, before nanomilling, 1 g scale
[5] = Table B, after 8 hours milling in aqueous 1.5% HPMC, 2.5 g per pot
[6] = Table B, starting material before nanomilling, Lecotrac laser particle size analyser

SMILES | EC50 [1] [nM] | Emax [1] [%] | Post-nanomilling 50% percentile [2, 3] [μ] | Post-nanomilling 95% percentile [2, 3] [μ] | Pre-nanomilling 50% percentile [2, 4] [μ] | Pre-nanomilling 95% percentile [2, 4] [μ] | Post-nanomilling 50% percentile [2, 5] [μ] | Post-nanomilling 95% percentile [2, 5] [μ] | Pre-nanomilling 50% percentile [2, 6] [μ] | Pre-nanomilling 95% percentile [2, 6] [μ]
O=C(NCC1CCCCC1)c1cnc(Nc2cccc(F)c2)nc1C(F)(F)F [Example 19, 2-(3-Fluorophenylamino)-4-trifluoromethylpyrimidine-5-carboxylic acid cyclohexylmethyl-amide] | 20 to 300 | > 50 | 0.40 | 1.40 | 5.22 | 25.5 |  |  |  | 
O=C(NCC1CCOCC1)c1cnc(Nc2ccc(Cl)cc2Cl)nc1C(F)(F)F [Example 34, 2-(2,4-Dichlorophenylamino)-4-trifluoromethylpyrimidine-5-carboxylic acid (tetrahydropyran-4-ylmethyl)-amide] | 20 to 300 | > 50 | 0.18 | 0.56 | 10.46 | 32.7 |  |  |  | 
N#Cc1ccc(Nc2ncc(C(=O)NCC3CCCC3)c(C(F)(F)F)n2)cc1 [Example 176, 2-(4-Cyanophenylamino)-4-trifluoromethyl-pyrimidine-5-carboxylic acid cyclopentylmethyl-amide] | 20 to 300 | > 50 |  |  |  |  | 0.33 | 1.78 | 13.15 | 68.7
O=C(NCC1CCC1)c1cnc(Nc2ccc(F)c(Cl)c2)nc1C(F)(F)F [Example 194, 2-(3-Chloro-4-fluorophenylamino)-4-trifluoromethyl-pyrimidine-5-carboxylic acid cyclobutylmethyl-amide] | 20 to 300 | > 50 | 0.56 | 1.97 | 6.78 | 33.7 |  |  |  | 
N#Cc1ccc(Nc2ncc(C(=O)NCC3CCOCC3)c(C(F)(F)F)n2)cc1Cl [Example 217, 2-(4-Cyano-3-chloro-phenylamino)-4-trifluoromethyl-pyrimidine-5-carboxylic acid (tetrahydro-pyran-4-ylmethyl)-amide] | 20 to 300 | > 50 | 0.34 | 1.30 | 5.70 | 34.9 |  |  |  | 
O=C(NCC1CCC1)c1cnc(Nc2ccc(Cl)cc2F)nc1C(F)(F)F [Example 228, 2-(2-Fluoro-4-chloro-phenylamino)-4-trifluoromethyl-pyrimidine-5-carboxylic acid cyclobutylmethyl-amide] | 20 to 300 | > 50 | 0.44 | 1.69 | 4.65 | 47.1 |  |  |  | 
O=C(NCC1CCCC1)c1cnc(Nc2ccc(F)c(Cl)c2)nc1C(F)(F)F [Example 247, 2-(3-Chloro-4-fluoro-phenylamino)-4-trifluoromethyl-pyrimidine-5-carboxylic acid cyclopentylmethyl-amide] | 20 to 300 | > 50 | 0.64 | 2.53 | 13.2 | 68.7 |  |  |  | 
